Assays:
Androgen receptor (AR) = target: T1, Androgen receptor (AR) (Homo sapiens, UniProt P10275, T878A); experiment: Assessment of AR proteolytic activity (Western blotting of LNCap cell lysates); format: cell-based; details: 24 hours of treatment, Western blotting quantified with Image J
T1 construct: 5.5×10^5 LNCap cells were injected into each well of a 6-well plate; endogenous in cells; host or cells: LNCaP
T1 sequence (P10275 1-920 T878A): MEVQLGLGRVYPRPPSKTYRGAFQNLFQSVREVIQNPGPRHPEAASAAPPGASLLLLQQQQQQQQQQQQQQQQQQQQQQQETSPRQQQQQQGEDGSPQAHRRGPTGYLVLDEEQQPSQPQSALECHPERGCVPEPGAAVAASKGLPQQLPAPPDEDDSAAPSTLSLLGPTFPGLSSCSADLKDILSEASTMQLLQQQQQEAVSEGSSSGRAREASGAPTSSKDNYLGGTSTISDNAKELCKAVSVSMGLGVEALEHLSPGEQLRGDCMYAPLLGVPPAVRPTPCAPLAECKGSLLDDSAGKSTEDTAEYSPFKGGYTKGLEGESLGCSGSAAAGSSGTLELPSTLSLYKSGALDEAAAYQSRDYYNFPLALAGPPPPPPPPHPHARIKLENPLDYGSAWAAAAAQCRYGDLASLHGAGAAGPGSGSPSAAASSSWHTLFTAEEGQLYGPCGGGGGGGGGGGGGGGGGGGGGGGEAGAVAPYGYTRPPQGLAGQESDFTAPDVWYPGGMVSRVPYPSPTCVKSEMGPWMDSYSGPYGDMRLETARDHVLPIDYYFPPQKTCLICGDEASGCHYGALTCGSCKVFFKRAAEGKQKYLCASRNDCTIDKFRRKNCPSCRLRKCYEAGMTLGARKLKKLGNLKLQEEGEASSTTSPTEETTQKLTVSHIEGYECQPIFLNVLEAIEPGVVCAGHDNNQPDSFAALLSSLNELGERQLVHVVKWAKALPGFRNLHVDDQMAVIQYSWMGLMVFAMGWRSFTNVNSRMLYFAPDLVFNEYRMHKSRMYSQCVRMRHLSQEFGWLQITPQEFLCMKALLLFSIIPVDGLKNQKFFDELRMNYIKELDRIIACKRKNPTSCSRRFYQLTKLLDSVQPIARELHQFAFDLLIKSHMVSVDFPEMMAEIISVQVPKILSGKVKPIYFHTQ
Outline: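 AR degradation read by Western blot densitometry on RIPA lysates (pH 7.5, protease inhibitor cocktail). Lysates came from LNCap cells, 5.5×10^5 per well, exposed to compound for 24 hours.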

Experimental for LNCaP cells: In order to evaluate the androgen receptor (AR) cytotoxicity of the compounds according to the present invention, the following experiment was conducted. Specifically, 1.5×10^3 (LNCaP) or 4×10^3 (VCaP, 22RV1), respectively, of LNCaP, VCaP, and 22RV1 cells were injected into each well of a 96-well plate. The next day, each well was treated with the compound at a final concentration of 3 nM, 10 nM, 30 nM, 100 nM, 300 nM, 1 μM, 3 μM, and 10 μM. […] After 6 days of treatment, Cell-titer-glo (promega) was treated and reacted for 10 minutes, and cell viability was measured with a multimode plate reader (PerkinElmer, Inc.), and the change was quantified compared to when DMSO was treated.

| Structure (SMILES) | Degradation (1 μM treated in LNCaP, % AR remaining) (Androgen receptor (AR)) [%] | CC50 (VCaP cells) [nM] | CC50 (LNCaP cells) [nM] |
| --- | --- | --- | --- |
| CC1(C)[C@H](NC(=O)c2ccc(N3CCN(CC4CCN(C(=O)C5CN(c6ccc7nnn(C8CCC(=O)NC8=O)c(=O)c7c6)C5)CC4)CC3)cc2)C(C)(C)[C@H]1Oc1ccc(C#N)c(Cl)c1 (stereo partly drawn) [Example 11, N-((1r,3r)-3-(3-chloro-4-cyanophenoxy)-2,2,4,4-tetramethylcyclobutyl)-4-(4-((1-(1-(3-(2,6-dioxopiperidin-3-yl)-4-oxo-3,4-dihydrobenzo[d][1,2,3]triazin-6-yl)azetidine-3-carbonyl)piperidin-4-yl)methyl)piperazin-1-yl)benzamide] | 7 | 74.7 | 91.4 |
| CC1(C)[C@H](NC(=O)c2ccc(N3CCN(CCC4CCN(C(=O)COc5ccc6nnn(C7CCC(=O)NC7=O)c(=O)c6c5)CC4)CC3)cc2)C(C)(C)[C@H]1Oc1ccc(C#N)c(Cl)c1 (stereo partly drawn) [Example 24, N-((1r,3r)-3-(3-chloro-4-cyanophenoxy)-2,2,4,4-tetramethylcyclobutyl)-4-(4-(2-(1-(2-((3-(2,6-dioxopiperidin-3-yl)-4-oxo-3,4-dihydrobenzo[d][1,2,3]triazin-6-yl)oxy)acetyl)piperidin-4-yl)ethyl)piperazin-1-yl)benzamide] | 13 | 107 | 1480 |
| CC1(C)[C@H](NC(=O)c2ccc(N3CCN(CCC4CCN(C(=O)CNc5ccc6nnn(C7CCC(=O)NC7=O)c(=O)c6c5)CC4)CC3)cc2)C(C)(C)[C@H]1Oc1ccc(C#N)c(Cl)c1 (stereo partly drawn) [Example 25, N-((1r,3r)-3-(3-chloro-4-cyanophenoxy)-2,2,4,4-tetramethylcyclobutyl)-4-(4-(2-(1-((3-(2,6-dioxopiperidin-3-yl)-4-oxo-3,4-dihydrobenzo[d][1,2,3]triazin-6-yl)glycyl)piperidin-4-yl)ethyl)piperazin-1-yl)benzamide] | 50 | 45.7 | 2130 |
| CC1(C)[C@H](NC(=O)c2ccc(N3CCN(CCC4CCN(C(=O)C5CN(c6ccc7nnn(C8CCC(=O)NC8=O)c(=O)c7c6)C5)CC4)CC3)cc2)C(C)(C)[C@H]1Oc1ccc(C#N)c(Cl)c1 (stereo partly drawn) [Example 27, N-((1r,3r)-3-(3-chloro-4-cyanophenoxy)-2,2,4,4-tetramethylcyclobutyl)-4-(4-(2-(1-(1-(3-(2,6-dioxopiperidin-3-yl)-4-oxo-3,4-dihydrobenzo[d][1,2,3]triazin-6-yl)azetidine-3-carbonyl)piperidin-4-yl)ethyl)piperazin-1-yl)benzamide] | 14 | 37.1 | 552 |
| CC1(C)[C@H](NC(=O)c2ccc(N3CCN(CCC4CCN(c5cccc6nnn(C7CCC(=O)NC7=O)c(=O)c56)CC4)CC3)cc2)C(C)(C)[C@H]1Oc1ccc(C#N)c(Cl)c1 (stereo partly drawn) [Example 28, N-((1r,3r)-3-(3-chloro-4-cyanophenoxy)-2,2,4,4-tetramethylcyclobutyl)-4-(4-(2-(1-(3-(2,6-dioxopiperidin-3-yl)-4-oxo-3,4-dihydrobenzo[d][1,2,3]triazin-5-yl)piperidin-4-yl)ethyl)piperazin-1-yl)benzamide] | 69 | 1580 | 1280 |
| CC1(C)[C@H](NC(=O)c2ccc(N3CCN(CCC4CCN(c5ccc6nnn(C7CCC(=O)NC7=O)c(=O)c6c5)CC4)CC3)cc2)C(C)(C)[C@H]1Oc1ccc(C#N)c(Cl)c1 (stereo partly drawn) [Example 29, N-((1r,3r)-3-(3-chloro-4-cyanophenoxy)-2,2,4,4-tetramethylcyclobutyl)-4-(4-(2-(1-(3-(2,6-dioxopiperidin-3-yl)-4-oxo-3,4-dihydrobenzo[d][1,2,3]triazin-6-yl)piperidin-4-yl)ethyl)piperazin-1-yl)benzamide] | 6 | 120 | 425 |
| CC1(C)[C@H](NC(=O)c2ccc(N3CCN(CCCC4CCN(C(=O)C5CN(c6ccc7nnn(C8CCC(=O)NC8=O)c(=O)c7c6)C5)CC4)CC3)cc2)C(C)(C)[C@H]1Oc1ccc(C#N)c(Cl)c1 (stereo partly drawn) [Example 47, N-((1r,3r)-3-(3-chloro-4-cyanophenoxy)-2,2,4,4-tetramethylcyclobutyl)-4-(4-(3-(1-(1-(3-(2,6-dioxopiperidin-3-yl)-4-oxo-3,4-dihydrobenzo[d][1,2,3]triazin-6-yl)azetidine-3-carbonyl)piperidin-4-yl)propyl)piperazin-1-yl)benzamide] | 43.6 | 23.7 | 168 |
| CC1(C)[C@H](NC(=O)c2ccc(N3CCN(CC4(F)CCN(C(=O)C5CN(c6ccc7nnn(C8CCC(=O)NC8=O)c(=O)c7c6)C5)CC4)CC3)cc2)C(C)(C)[C@H]1Oc1ccc(C#N)c(Cl)c1 (stereo partly drawn) [Example 63, N-((1r,3r)-3-(3-chloro-4-cyanophenoxy)-2,2,4,4-tetramethylcyclobutyl)-4-(4-((1-(1-(3-(2,6-dioxopiperidin-3-yl)-4-oxo-3,4-dihydrobenzo[d][1,2,3]triazin-6-yl)azetidine-3-carbonyl)-4-fluoropiperidin-4-yl)methyl)piperazin-1-yl)benzamide] | 6 | 14.8 | 53.2 |
| CC1(C)[C@H](NC(=O)c2ccc(-c3cnn(C4CCN(CC5CCN(C(=O)C6CN(c7ccc8nnn(C9CCC(=O)NC9=O)c(=O)c8c7)C6)CC5)CC4)c3)cc2)C(C)(C)[C@H]1Oc1ccc(C#N)c(Cl)c1 (stereo partly drawn) [Example 83, N-((1r,3r)-3-(3-chloro-4-cyanophenoxy)-2,2,4,4-tetramethylcyclobutyl)-4-(1-(1-((1-(1-(3-(2,6-dioxopiperidin-3-yl)-4-oxo-3,4-dihydrobenzo[d][1,2,3]triazin-6-yl)azetidine-3-carbonyl)piperidin-4-yl)methyl)piperidin-4-yl)-1H-pyrazol-4-yl)benzamide] | 43 | 6 | 13.7 |
| CC1(C)[C@H](NC(=O)c2ccc(C#CC3CCN(CC4CCN(c5ccc6nnn(C7CCC(=O)NC7=O)c(=O)c6c5)CC4)CC3)cc2)C(C)(C)[C@H]1Oc1ccc(C#N)c(Cl)c1 (stereo partly drawn) [Example 99, N-((1r,3r)-3-(3-chloro-4-cyanophenoxy)-2,2,4,4-tetramethylcyclobutyl)-4-((1-((1-(3-(2,6-dioxopiperidin-3-yl)-4-oxo-3,4-dihydrobenzo[d][1,2,3]triazin-6-yl)piperidin-4-yl)methyl)piperidin-4-yl)ethynyl)benzamide] | 20 | 2 | 31.5 |
| CC1(C)[C@H](NC(=O)c2ccc(-n3cc(C4CCN(C(=O)C5CN(c6ccc7nnn(C8CCC(=O)NC8=O)c(=O)c7c6)C5)CC4)nn3)cc2)C(C)(C)[C@H]1Oc1ccc(C#N)c(Cl)c1 (stereo partly drawn) [Example 101, N-((1r,3r)-3-(3-chloro-4-cyanophenoxy)-2,2,4,4-tetramethylcyclobutyl)-4-(4-(1-(1-(3-(2,6-dioxopiperidin-3-yl)-4-oxo-3,4-dihydrobenzo[d][1,2,3]triazin-6-yl)azetidine-3-carbonyl)piperidin-4-yl)-1H-1,2,3-triazol-1-yl)benzamide] | 40 | 15.5 | 7.06 |
| CC1(C)[C@H](NC(=O)c2ccc(C#CC3CCN(C(=O)CNc4ccc5nnn(C6CCC(=O)NC6=O)c(=O)c5c4)CC3)cc2)C(C)(C)[C@H]1Oc1ccc(C#N)c(Cl)c1 (stereo partly drawn) [Example 143, N-((1r,3r)-3-(3-chloro-4-cyanophenoxy)-2,2,4,4-tetramethylcyclobutyl)-4-((1-((3-(2,6-dioxopiperidin-3-yl)-4-oxo-3,4-dihydrobenzo[d][1,2,3]triazin-6-yl)glycyl)piperidin-4-yl)ethynyl)benzamide] | 18 | 6.9 | 17.6 |
| CC1(C)[C@H](NC(=O)c2ccc(C#CC3CCN(C(=O)COc4ccc5nnn(C6CCC(=O)NC6=O)c(=O)c5c4)CC3)cc2)C(C)(C)[C@H]1Oc1ccc(C#N)c(Cl)c1 (stereo partly drawn) [Example 144, N-((1r,3r)-3-(3-chloro-4-cyanophenoxy)-2,2,4,4-tetramethylcyclobutyl)-4-((1-(2-((3-(2,6-dioxopiperidin-3-yl)-4-oxo-3,4-dihydrobenzo[d][1,2,3]triazin-6-yl)oxy)acetyl)piperidin-4-yl)ethynyl)benzamide] | 14.7 | 21 | 144 |

— patent US20240018123A1, “COMPOUND FOR INHIBITING OR DISINTEGRATING ANDROGEN RECEPTOR, AND PHARMACEUTICAL USE THEREOF” (KOREA RESEARCH INSTITUTE OF CHEMICAL TECHNOLOGY, priority 2020, published 2024)
